Marks after values point to notes of the source that are not given here.
Experiments:
[1] = system: suckling rats; experiment: Papain vs microbial protease: macromolecule absorption (BSA, BIgG in plasma), Example 8; assay type: in vivo, Rattus norvegicus; details: day 17, 3 hours after feeding, in words (FIG. 14)
Excerpt: The litter size for each dam was limited to 12 or 13 pups, to reduce variability.
Suckling pups were divided into 3 groups depending on the treatments; microbial protease as a positive control, water as negative control and enzyme from papaya fruit (papain) (in total; protease=7, papain=8, control=7). The enzymes are available in the market in form of powders and were resolved in distilled water prior to stomach feeding during 14-16 d of age. The administered dose for each enzyme was 10000 USP/animal. The volume of administered enzymes and water (for control groups) was 0.01 ml/g b.wt. Prior to the feeding procedure, the pups were weighed. […] Three hours later, the pups were anaesthetized and organs were dissected out for analyses.

[2] = system: suckling rats; experiment: Set II: different doses of protease, organ weights, stomach pH and body weight, Example 4; assay type: in vivo, Rattus norvegicus; design: mean body weight Bwt 1/Day 14 / mean body weight Bwt2/Day 15 / mean body weight Bwt3/Day 16 / mean body weight Bwt4/Day 17: unit not given here; details: for Cecum / Distal SI / Liver / Pancreas / Proximal SI / SI length / Spleen / Stomach / Thymus: day 17; for pH: stomach contents
Procedure: The second study was about comparing the effect of different doses of protease (15000 USP, 7500 USP, 3750 USP and […]) on the development of the GI tract with control. In this experiment 2 litters of pups were used (n=13 and n=12). Pups were divided into five groups to fed with different doses of protease; 15000 USP (n=3), P7500 USP (n=6), P 3750 USP (n=6), P 1875 USP (n=5) and water as a control (n=5). The feeding was during 3 continuous days, once a day. 24 hours after the last feeding, on day 17, similar dissection steps and analytical procedures as mentioned for the previous experiment were followed.
All data are presented as mean±standard deviation (SD). […] Results were considered as significant when P<0.05.

**Q.** “Proteinase from Aspergillus melleus [Protease]” was tested. Which “uptake of macromolecules, BIgG absorption” value [1] did it give?
**A.** The value was “significantly lower”.

**Q.** And the diarrhoea ([2]; highest dose of protease, after first dose on day 14)?
**A.** The diarrhoea was “signs of diarrhoea”.

**Q.** What about the “mean body weight Bwt 1/Day 14” value ([2]; protease 15 000USP) of the same substance?
**A.** Its value is 28.7.

**Q.** And the “mean body weight Bwt2/Day 15” value ([2]; protease 15 000USP)?
**A.** The value was 27.4*.

**Q.** And the “mean body weight Bwt3/Day 16” value ([2]; protease 15 000USP)?
**A.** Its value is 28.2*.

**Q.** What about the “mean body weight Bwt4/Day 17” value ([2]; protease 15 000USP) of the same substance?
**A.** The value was 30.1*.

**Q.** And the “mean body weight Bwt 1/Day 14” value ([2]; protease 1875USP)?
**A.** The value was 28.2.

**Q.** What about the “mean body weight Bwt2/Day 15” value ([2]; protease 1875USP) of the same substance?
**A.** The value was 31.7.

**Q.** What about the “mean body weight Bwt3/Day 16” value ([2]; protease 1875USP) of the same substance?
**A.** The value was 32.9.

**Q.** And the “mean body weight Bwt4/Day 17” value ([2]; protease 1875USP)?
**A.** The value was 34.8.

**Q.** What about the Cecum ([2]; protease 1875 USP) of the same substance?
**A.** The Cecum was 2.3 ± 0.2 mg/g BW.

**Q.** And the “Distal SI” value ([2]; protease 1875 USP)?
**A.** The value was 13.3 ± 1.4 mg/g BW.

**Q.** And the Liver ([2]; protease 1875 USP)?
**A.** Its Liver is 31.7 ± 1.1 mg/g BW.

**Q.** What about the Pancreas ([2]; protease 1875 USP) of the same substance?
**A.** The Pancreas was 3.0 ± 0.4 mg/g BW.

**Q.** What about the “Proximal SI” value ([2]; protease 1875 USP) of the same substance?
**A.** The value was 16.4 ± 0.8 mg/g BW.

**Q.** And the SI length ([2]; protease 1875 USP)?
**A.** The SI length was 1.5 ± 0.0 cm/g BW.

**Q.** What about the Spleen ([2]; protease 1875 USP) of the same substance?
**A.** Its Spleen is 3.3 ± 0.4 mg/g BW.

**Q.** What about the Stomach ([2]; protease 1875 USP) of the same substance?
**A.** The Stomach was 6.1 ± 0.3 mg/g BW.

**Q.** What about the Thymus ([2]; protease 1875 USP) of the same substance?
**A.** Its Thymus is 5.6 ± 0.3 mg/g BW.

**Q.** What about the “mean body weight Bwt 1/Day 14” value ([2]; protease 3750USP) of the same substance?
**A.** The value was 28.5.

**Q.** What about the “mean body weight Bwt2/Day 15” value ([2]; protease 3750USP) of the same substance?
**A.** Its value is 30.5.

**Q.** And the “mean body weight Bwt3/Day 16” value ([2]; protease 3750USP)?
**A.** The value was 32.3.

**Q.** And the “mean body weight Bwt4/Day 17” value ([2]; protease 3750USP)?
**A.** Its value is 33.3.

**Q.** What about the Cecum ([2]; protease 3750 USP) of the same substance?
**A.** Its Cecum is 2.8 ± 0.3 mg/g BW.

**Q.** And the “Distal SI” value ([2]; protease 3750 USP)?
**A.** The value was 14.7 ± 1.1 mg/g BW.

**Q.** And the Liver ([2]; protease 3750 USP)?
**A.** Its Liver is 32.8 ± 1.7 mg/g BW.

**Q.** And the Pancreas ([2]; protease 3750 USP)?
**A.** Its Pancreas is 3.2 ± 0.3 mg/g BW.

**Q.** What about the “Proximal SI” value ([2]; protease 3750 USP) of the same substance?
**A.** The value was 17.6 ± 1.5 mg/g BW.

**Q.** What about the SI length ([2]; protease 3750 USP) of the same substance?
**A.** Its SI length is 1.5 ± 0.1 cm/g BW.

**Q.** What about the Spleen ([2]; protease 3750 USP) of the same substance?
**A.** Its Spleen is 3.3 ± 0.5 mg/g BW.

**Q.** And the Stomach ([2]; protease 3750 USP)?
**A.** The Stomach was 6.4 ± 0.3 mg/g BW.

**Q.** What about the Thymus ([2]; protease 3750 USP) of the same substance?
**A.** Its Thymus is 5.6 ± 0.8 mg/g BW.

**Q.** What about the “mean body weight Bwt 1/Day 14” value ([2]; protease 7500USP) of the same substance?
**A.** The value was 28.9.

**Q.** And the “mean body weight Bwt2/Day 15” value ([2]; protease 7500USP)?
**A.** Its value is 30.6.

**Q.** What about the “mean body weight Bwt3/Day 16” value ([2]; protease 7500USP) of the same substance?
**A.** Its value is 32.2.

**Q.** And the “mean body weight Bwt4/Day 17” value ([2]; protease 7500USP)?
**A.** The value was 33.6.

**Q.** What about the Cecum ([2]; protease 7500 USP) of the same substance?
**A.** Its Cecum is 3.0 ± 0.2 mg/g BW.

**Q.** What about the “Distal SI” value ([2]; protease 7500 USP) of the same substance?
**A.** The value was 15.4 ± 1.7 mg/g BW.

**Q.** And the Liver ([2]; protease 7500 USP)?
**A.** The Liver was 33.0 ± 1.6 mg/g BW.

**Q.** And the Pancreas ([2]; protease 7500 USP)?
**A.** The Pancreas was 3.4 ± 0.4 mg/g BW.

**Q.** And the “Proximal SI” value ([2]; protease 7500 USP)?
**A.** The value was 19.3 ± 2.0 mg/g BW.

**Q.** What about the SI length ([2]; protease 7500 USP) of the same substance?
**A.** The SI length was 1.8 ± 0.1 cm/g BW.

**Q.** And the Spleen ([2]; protease 7500 USP)?
**A.** Its Spleen is 3.1 ± 0.1 mg/g BW.

**Q.** What about the Stomach ([2]; protease 7500 USP) of the same substance?
**A.** Its Stomach is 6.3 ± 0.4 mg/g BW.

**Q.** And the Thymus ([2]; protease 7500 USP)?
**A.** Its Thymus is 4.8 ± 0.6 mg/g BW.

**Q.** And the Cecum ([2]; protease 15000 USP)?
**A.** Its Cecum is 4.2 ± 0.1 mg/g BW.

**Q.** And the “Distal SI” value ([2]; protease 15000 USP)?
**A.** Its value is 18.6 ± 1.0 mg/g BW.

**Q.** What about the Liver ([2]; protease 15000 USP) of the same substance?
**A.** Its Liver is 38.5 ± 2.4 mg/g BW.

**Q.** And the Pancreas ([2]; protease 15000 USP)?
**A.** Its Pancreas is 4.8 ± 0.2 mg/g BW.

**Q.** What about the “Proximal SI” value ([2]; protease 15000 USP) of the same substance?
**A.** The value was 28.2 ± 1.7 mg/g BW.

**Q.** And the SI length ([2]; protease 15000 USP)?
**A.** The SI length was 1.8 ± 0.1 cm/g BW.

**Q.** What about the Spleen ([2]; protease 15000 USP) of the same substance?
**A.** The Spleen was 3.0 ± 0.3 mg/g BW.

**Q.** What about the Stomach ([2]; protease 15000 USP) of the same substance?
**A.** The Stomach was 6.9 ± 0.7 mg/g BW.

**Q.** What about the Thymus ([2]; protease 15000 USP) of the same substance?
**A.** The Thymus was 3.0 ± 0.2 mg/g BW.

**Q.** And the pH ([2]; protease 1875 USP)?
**A.** The pH was 4.1 ± 0.2.

**Q.** What about the pH ([2]; protease 3750 USP) of the same substance?
**A.** The pH was 4.1 ± 0.4.

**Q.** What about the pH ([2]; protease 7500 USP) of the same substance?
**A.** The pH was 3.9 ± 0.7.

**Q.** What about the pH ([2]; protease 15000 USP) of the same substance?
**A.** The pH was 3.4 ± 0.8.
